The record followed here is ChEMBL document CHEMBL1201862, “PubChem BioAssay data set” (2004).

What all share (experiment): growth of human tumour cells (NCI), 48 h
The subject of test [1] is EKVX.
For test [2], the system named is U-251.
Test [3] deals with BT-549.
For test [4], the system named is MDA-MB-231.
Test [5] relates to RPMI-8226.
Test [6] deals with SF-268.
Test [7] deals with OVCAR-8.
The subject of test [8] is SN12C.
The subject of test [9] is MCF7.
For test [10], the system named is UACC-257.
Test [11] concerns T47D.
Test [12] has as its system TK-10.
Test [13] has as its system HCT-15.
In test [14] the test system is SNB-19.
Test [15] relates to MDA-MB-435.
The test system of test [16] is SR.
Test [17] relates to PC-3.
For test [18], the system named is HCT-116.
The test system of test [19] is LOX IMVI.
The subject of test [20] is SK-MEL-5.

The structures appear in SMILES notation.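 96-well plates; 48 h exposure; 5 concentrations. Endpoints by linear interpolation between flanking doses. Not reached: highest tested concentration assigned. Abbreviation: GI50, concentration required for 50% inhibition of growth.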 Activity calls are given as the source filed them. Rule as the data show it: active = GI50 up to about 1.1 µM and inactive = higher. A value given as a limit tells only on which side of the number the result lay.

Regarding `C[N+]12C=CC=C1C(N1CCCC1)c1scc(-c3ccc(Br)cc3)c12` (stereo not given), the GI50 in test [1] was 20.1 µM (inactive); in test [2], 2.09 µM (inactive); in test [3] it was 1.79 µM (inactive); in [4] it was 23.9 µM (inactive); in [5] it was 3.01 µM (inactive); in [6], 3.15 µM (inactive). The GI50 in test [7] is 4.11 µM (inactive); in test [8], 3.02 µM (inactive); in [9], 22.9 µM (inactive); in test [10], 7.36 µM (inactive); in test [11] it was 4.61 µM (inactive); in test [12], 91.2 µM (inactive). Besides, the GI50 was above 90.8 µM in [13]; 4.22 µM (inactive) in [14]; 24 µM (inactive) in [15]; 4.81 µM (inactive) in [16]; 21 µM (inactive) in test [17]; 30.9 µM (inactive) in test [18]. Also, the GI50 in [19] is 25.5 µM (inactive); in test [20] it was 4.68 µM (inactive).
`O=[N+]([O-])c1ccc(C2=Nn3c(nnc3-c3ccc(Cl)cc3)SC2)o1`: the GI50 in test [1] was 10.7 µM (inactive); in test [2], 14.1 µM (inactive); in [3] it was 11.4 µM (inactive); in test [4], 3.24 µM (inactive); in [5] it was 2.1 µM (inactive); in test [6] it was 10.8 µM (inactive). Besides, the GI50 was 9.91 µM (inactive) in test [7]; 8.38 µM (inactive) in test [8]; 1.88 µM (inactive) in test [9]; 7.38 µM (inactive) in [10]; 5.45 µM (inactive) in [11]; 14.9 µM (inactive) in [12]. The GI50 in [13] is 2.33 µM; in [14], 13.3 µM (inactive); in test [15], 2.08 µM (inactive); in test [16], 0.394 µM (active); in [17], 5.32 µM (inactive); in test [18] it was 5.71 µM (inactive). Moreover, the GI50 was 3.93 µM (inactive) in test [19] and 10.8 µM (inactive) in test [20].
On to `CC1=C2C(=O)c3ccccc3C(=O)[C@H]2[C@H]2CCO[C@H]2O1`, for which the GI50 was 30.5 µM (inactive) in test [1]; 24.2 µM (inactive) in test [2]; 13.3 µM (inactive) in [3]; 24.2 µM (inactive) in test [4]; 24.4 µM (inactive) in test [5]; 17.7 µM (inactive) in test [6]. Further, the GI50 in test [7] was 20.4 µM (inactive); in test [8] it was 20.9 µM (inactive); in [9], 0.3 µM (active); in [10], 18.5 µM (inactive); in [11] it was 34.7 µM (inactive); in [12], 28.5 µM (inactive). Moreover, the GI50 is 25.6 µM in test [13]; 37 µM (inactive) in test [14]; 20.7 µM (inactive) in test [15]; 35.2 µM (inactive) in test [16]; 30.3 µM (inactive) in [17]; 23.8 µM (inactive) in [18]. The GI50 in test [19] was 22.3 µM (inactive); in test [20] it was 15.6 µM (inactive).
As to `CNC1Cc2c[nH]c3cccc(c23)C12C=C(C)C(=O)O2` (stereo not given), the GI50 in test [1], in [2], in [3], in test [4], in test [5] and in test [6] was > 100 µM (inactive) in each case. The GI50 in test [7], in test [8], in [9], in test [10], in test [11] and in test [12] was > 100 µM (inactive) in each case. In addition, the GI50 in test [13] is above 100 µM; in [14], > 100 µM (inactive); in test [15], > 100 µM (inactive); in test [16] it was 88.5 µM (inactive); in test [17] it was > 100 µM (inactive); in [18] it was > 100 µM (inactive). Moreover, the GI50 in test [19] and in [20] was > 100 µM (inactive) each time.
